What was measured:
Format in all cases: functional
Mythimna separata [1] = test: Insecticidal activity against Mythimna separata at 500 mg/kg
Nephotettix cincticeps = test: Insecticidal activity against Nephotettix cincticeps at 500 mg/kg
Mythimna separata [2] = test: Insecticidal activity against Mythimna separata at 50 mg/kg
Mythimna separata [3] = test: Insecticidal activity against Mythimna separata at 10 mg/kg
Mythimna separata [4] = test: Insecticidal activity against Mythimna separata at 100 mg/kg
Mythimna separata [5] = test: Insecticidal activity against Mythimna separata at 200 mg/kg
Mythimna separata [6] = test: Insecticidal activity against Mythimna separata at 25 mg/kg
Tetranychus urticae [7] = test: Acarcidal activity against Tetranychus urticae larvae at 200 mg/kg
Tetranychus urticae [8] = test: Acarcidal activity against Tetranychus urticae eggs at 200 mg/kg

Structure (SMILES)	Activity (Mythimna separata [1]) [%]	Activity (Nephotettix cincticeps) [%]	Activity (Mythimna separata [2]) [%]	Activity (Mythimna separata [3]) [%]	Activity (Mythimna separata [4]) [%]	Activity (Mythimna separata [5]) [%]	Activity (Mythimna separata [6]) [%]	Activity (Tetranychus urticae [7]) [%]	Activity (Tetranychus urticae [8]) [%]
CC(C)Oc1ccc(/C=N\OCc2ccc(NC(=O)NC(=O)c3c(F)cccc3F)cc2)cc1	0								
N#C/C(=N/OCc1ccc(NC(=O)NC(=O)c2c(F)cccc2F)cc1)c1ccccc1	25	50	0	0	0	0	0		
C/C(=N/OCc1ccc(NC(=O)NC(=O)c2c(F)cccc2F)cc1)c1ccc2c(c1)OCO2	100		90	15	100	100	70	7	10
CC(C)(C)c1ccc(/C=N\OCc2ccc(NC(=O)NC(=O)c3c(F)cccc3F)cc2)cc1	30	18.2				0			
Cc1ccc(Oc2c(/C=N\OCc3ccc(NC(=O)NC(=O)c4c(F)cccc4F)cc3)c(C)nn2C)cc1	30	50	0	0	0	0	0		
Cc1ccc(Oc2c(/C=N\OCc3ccc(NC(=O)NC(=O)c4c(F)cccc4F)cc3)c(C)nn2C)cc1C	60	24.3	0	0	0	0	0		
Cc1cc(C)cc(Oc2c(/C=N\OCc3ccc(NC(=O)NC(=O)c4c(F)cccc4F)cc3)c(C)nn2C)c1	100	69.7	0	0	50	100	0		
O=C(NC(=O)c1c(F)cccc1F)Nc1ccc(CO/N=C\OCc2ccccc2)cc1	30	45.7				0			
C/C(=N/OCc1ccc(NC(=O)NC(=O)c2c(F)cccc2F)cc1)n1cncn1	100	19.2	50	0	100	100	0	10	12
Cc1nn(-c2ccccc2)c(Cl)c1/C=N\OCc1ccc(NC(=O)NC(=O)c2c(F)cccc2F)cc1	100	62.5	0	0	0	40	0		
O=C(NC(=O)c1c(F)cccc1F)Nc1ccc(CO/N=C\c2ccc3c(c2)OCO3)cc1	100	33.3	100	50	100	100	100	10	11
CCCS/C(C)=N\OCc1ccc(NC(=O)NC(=O)c2c(F)cccc2F)cc1	75			0	10	15	10		
O=C(NC(=O)c1c(F)cccc1F)Nc1ccc(CO/N=C(/c2ccc(Cl)cc2)C2CC2)cc1 [FLUCYCLOXURON]		42.8		100			100	100	100
CCCCS/C(=N/OCc1ccc(NC(=O)NC(=O)c2c(F)cccc2F)cc1)c1ccc(C(C)(C)C)cc1	80	56.3	25	0	40	65	0		
CCS/C(=N/OCc1ccc(NC(=O)NC(=O)c2c(F)cccc2F)cc1)C(C)C	100	41		0	50	100	0	43	76

Source: ChEMBL document CHEMBL1143046, “Synthesis and bioassay evaluation of 1-(4-substitutedideneaminooxymethyl)-phenyl-3-(2,6-difluorobenzoyl)ureas” (2007)
